According to ChEMBL document CHEMBL4266046, “β-Triketone-Monoterpene Hybrids from the Flowers of the Australian Tree Corymbia intermedia” (J Nat Prod, 2018):

Experiments:
Plasmodium falciparum [1] = assay: Antiplasmodial activity against synchronized ring stage of chloroquine-sensitive Plasmodium falciparum 3D7 infected in human erythrocytes assessed as inhibition of parasite replication after 72 hrs by DAPI staining based fluorescence imaging analysis; type: functional, organism-based; conditions: 3D7, 72 h
Plasmodium falciparum [2] = assay: Antiplasmodial activity against synchronized ring stage of chloroquine-sensitive Plasmodium falciparum 3D7 infected in human erythrocytes assessed as inhibition of parasite replication at higher concentration after 72 hrs by DAPI staining based fluorescence imaging analysis relative to control; type: functional
HEK293 = assay: (§1) Cytotoxicity against HEK293 cells assessed as inhibition of cell proliferation at 100 uM relative to control; type: cell-based; conditions: human, hek293, 100 µM
[3] = as §1; type: cell-based; conditions: human, HEK293 cells

Structure (SMILES)	IC50 (Plasmodium falciparum [1]) [µM]	inhibition (INH) (Plasmodium falciparum [2]) [%]	Activity (HEK293)	inhibition at 100 µM [3] [%]
CC1(C)C(=O)C2=C(O[C@@]3(C)[C@H](C[C@@H]4C[C@H]3C4(C)C)[C@H]2c2ccccc2)C(C)(C)C1=O	20.8	100	Non-Toxic	–
CC1(C)C(=O)C2=C(O[C@]3(CC[C@H]4C[C@@H]3C4(C)C)C[C@@H]2c2ccccc2)C(C)(C)C1=O	12.5	–	–	64
CC1(C)C(=O)C2=C(O[C@]3(CC[C@H]4C[C@@H]3C4(C)C)C[C@H]2c2ccccc2)C(C)(C)C1=O	9.9	100	–	–
